From patent US20070219141A1, “Plant Materials Extraction Method” (priority 2003, published 2007)

Assays:
Assay type in all cases: cell-based
[1] = tested on: all the bacteria and fungus used in above biological screening; assay: Disk diffusion assay, whole panel; conditions: seven bacteria and C. albicans
From the text: (§1) Microorganisms: Laboratory strains of bacteria and fungus were obtained from Dr. Neil Towers' and Dr. Jovel's lab, The University of British Columbia. Seven species of bacteria and one species of fungus will be used in the screening process. The bacteria strains consisted of Staphylococcus aureus, methicillin resistant Staphylococcus aureus, Bacillus subtilis and Enterococcus faecalis, Escherichia coli, Pseudomonas aeruginosa, and Salmonella typhimurium. The fungal species was Candida albicans.
(§2) Methods: Disk diffusion assay on agar plates inoculated with the organisms being studies. The plates were divided into quadrants or sixths using a black marking pen. In quadrant 1 and 2, negative and positive controls were run (no treatment and gentamicin). Test compounds were run on the remaining available portions.

Pseudomonas aeruginosa = assay: Disk diffusion assay on agar plates; set-up: key: “+” active; “—” not active
From the text: as §1, §2

Salmonella typhimurium = assay: Disk diffusion assay on agar plates; set-up: key: “+” active; “—” not active
From the text: as §1, §2

Enterococcus faecalis = assay: Disk diffusion assay on agar plates; set-up: key: “+” active; “—” not active
From the text: as §1, §2

Candida albicans = assay: Disk diffusion assay on agar plates; set-up: key: “+” active; “—” not active
From the text: as §1, §2

| Compound | anti-microbial activity over the panel, in words [1] | Anti-microbial activity P. a (Pseudomonas aeruginosa) | Anti-microbial activity S. t. (Salmonella typhimurium) | Anti-microbial activity E. f. (Enterococcus faecalis) | Anti-microbial activity C. a (Candida albicans) |
| --- | --- | --- | --- | --- | --- |
| CC(C)c1cccc(=O)c(O)c1 [Hinokitiol standard, 2,4,6-Cycloheptatrien-1-one,2-hydroxy-4-(1-methylethyl)] | demonstrated activities against all the bacteria and fungus | + |  |  |  |
| CC1(C)C=CC=C(C(=O)O)C=C1 [Thujic acid standard, thujic acid] | showed activities against some bacteria and fungus | — | + |  |  |
| Gentamicin | active against all the tested bacteria but not against C. albicans |  |  | + | — |
